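Interpolation was linear, between the two tested concentrations surrounding the appropriate level; five concentrations were tested over 48 hours in 96-well plates. GI50 is the concentration that inhibits growth by half. TGI is the concentration that stops growth completely.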
Experiments:
Test in all cases: NCI-60 cell line screen, 48 h
NCI/ADR-RES ovarian = system: NCI/ADR-RES ovarian
U251 CNS = system: U251 CNS
OVCAR-8 ovarian = system: OVCAR-8 ovarian
SR leukemia = system: SR leukemia
UACC-257 melanoma = system: UACC-257 melanoma
SK-MEL-2 melanoma = system: SK-MEL-2 melanoma
EKVX NSCLC = system: EKVX NSCLC
SK-OV-3 ovarian = system: SK-OV-3 ovarian
RPMI-8226 leukemia = system: RPMI-8226 leukemia
DU-145 prostate = system: DU-145 prostate
HS 578T breast = system: HS 578T breast
OVCAR-3 ovarian = system: OVCAR-3 ovarian
NCI-H23 lung = system: NCI-H23 lung
SN12C renal = system: SN12C renal
SNB-19 CNS = system: SNB-19 CNS
SF-268 CNS = system: SF-268 CNS
M14 melanoma = system: M14 melanoma
NCI-H226 lung = system: NCI-H226 lung
IGROV1 ovarian = system: IGROV1 ovarian
SNB-75 CNS = system: SNB-75 CNS
HCC-2998 colon = system: HCC-2998 colon
TK-10 renal = system: TK-10 renal
PC-3 prostate = system: PC-3 prostate
K-562 leukemia = system: K-562 leukemia
HL-60(TB) leukemia = system: HL-60(TB) leukemia
HCT-116 colon = system: HCT-116 colon
ACHN renal = system: ACHN renal
786-0 renal = system: 786-0 renal
LOX IMVI melanoma = system: LOX IMVI melanoma
T-47D breast = system: T-47D breast

SMILES: N#Cc1c(NC(=O)c2ccc(C(F)(F)F)c(Cl)c2)sc2c1CCC(=O)C2
- GI50 (NCI/ADR-RES ovarian): 1600 nM
- TGI (NCI/ADR-RES ovarian): 4190 nM
- GI50 (U251 CNS): 760 nM
- TGI (U251 CNS): 2070 nM
- GI50 (OVCAR-8 ovarian): 1380 nM
- TGI (OVCAR-8 ovarian): 3480 nM
- GI50 (SR leukemia): 399 nM
- TGI (SR leukemia): 10300 nM
- GI50 (UACC-257 melanoma): 1700 nM
- TGI (UACC-257 melanoma): 4350 nM
- GI50 (SK-MEL-2 melanoma): 1940 nM
- TGI (SK-MEL-2 melanoma): 4380 nM
- GI50 (EKVX NSCLC): 1900 nM
- TGI (EKVX NSCLC): 4920 nM
- GI50 (SK-OV-3 ovarian): 2120 nM
- TGI (SK-OV-3 ovarian): 5920 nM
- GI50 (RPMI-8226 leukemia): 214 nM
- TGI (RPMI-8226 leukemia): 736 nM
- GI50 (DU-145 prostate): 3930 nM
- TGI (DU-145 prostate): 18300 nM
- GI50 (HS 578T breast): 891 nM
- TGI (HS 578T breast): 3490 nM
- GI50 (OVCAR-3 ovarian): 1430 nM
- TGI (OVCAR-3 ovarian): 2990 nM
- GI50 (NCI-H23 lung): 1030 nM
- TGI (NCI-H23 lung): 3010 nM
- GI50 (SN12C renal): 923 nM
- TGI (SN12C renal): 2740 nM
- GI50 (SNB-19 CNS): 1670 nM
- TGI (SNB-19 CNS): 4350 nM
- GI50 (SF-268 CNS): 1780 nM
- TGI (SF-268 CNS): 5370 nM
- GI50 (M14 melanoma): 922 nM
- TGI (M14 melanoma): 2690 nM
- GI50 (NCI-H226 lung): 2590 nM
- TGI (NCI-H226 lung): 8600 nM
- GI50 (IGROV1 ovarian): 1520 nM
- TGI (IGROV1 ovarian): 3070 nM
- GI50 (SNB-75 CNS): 1350 nM
- TGI (SNB-75 CNS): 3380 nM
- GI50 (HCC-2998 colon): 1670 nM
- TGI (HCC-2998 colon): 3350 nM
- GI50 (TK-10 renal): 2280 nM
- TGI (TK-10 renal): 7430 nM
- GI50 (PC-3 prostate): 448 nM
- TGI (PC-3 prostate): 3230 nM
- GI50 (K-562 leukemia): 336 nM
- TGI (K-562 leukemia): 5220 nM
- GI50 (HL-60(TB) leukemia): 1160 nM
- TGI (HL-60(TB) leukemia): 5390 nM
- GI50 (HCT-116 colon): 371 nM
- TGI (HCT-116 colon): 1430 nM
- GI50 (ACHN renal): 692 nM
- TGI (ACHN renal): 1860 nM
- GI50 (786-0 renal): 1850 nM
- TGI (786-0 renal): 5530 nM
- GI50 (LOX IMVI melanoma): 561 nM
- TGI (LOX IMVI melanoma): 2040 nM
- GI50 (T-47D breast): 599 nM

— PubChem BioAssay (NCI)
